According to patent publication US10640545B2 (THE GOVERNORS OF THE UNIVERSITY OF ALBERTA, priority 2017, dated 2020):
Where a SMILES comes first, the peptide text is derived from it. [ ]: non-standard residue; d: D form. Phe(4-Br) = N[C@@H](Cc1ccc(Br)cc1)C(=O)O; NMeL = CN[C@@H](CC(C)C)C(=O)O; Nle = CCCC[C@H](N)C(=O)O; Aib = CC(C)(N)C(=O)O

How the values were obtained:
[1] = molecular target: T1, wild-type rat apelin receptor (Rattus norvegicus, UniProt Q9JHG3); experiment: Radioligand binding, displacement of [125I]-pyr-1-apelin-13 on CHO cell membranes
T1 construct: expressed in transfected cells
T1 sequence (Q9JHG3 1-377): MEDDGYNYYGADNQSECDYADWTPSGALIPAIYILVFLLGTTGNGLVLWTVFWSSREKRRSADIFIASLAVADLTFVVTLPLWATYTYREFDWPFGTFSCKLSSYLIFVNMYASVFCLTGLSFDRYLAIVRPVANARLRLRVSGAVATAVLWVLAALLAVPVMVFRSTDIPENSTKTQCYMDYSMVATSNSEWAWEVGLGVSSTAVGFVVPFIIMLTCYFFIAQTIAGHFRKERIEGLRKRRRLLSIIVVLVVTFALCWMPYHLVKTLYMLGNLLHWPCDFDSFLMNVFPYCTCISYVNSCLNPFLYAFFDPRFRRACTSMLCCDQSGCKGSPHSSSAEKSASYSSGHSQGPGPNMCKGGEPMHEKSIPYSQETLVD
Procedure, shortened: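 Membranes (1 μg) from CHO cells stably expressing rat apelin receptor-EGFP incubated 3 h at 20 °C with 0.2 nM [125I]-pyr-1-apelin-13 and varying peptide concentrations in 50 mM HEPES, 5 mM MgCl2, 1% BSA, pH 7.5. Bound radioactivity measured by filtration and gamma counting.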

NEP = NEP (Homo sapiens, UniProt P08473); experiment: Neprilysin degradation assay (LC-MS, quantitative); conditions: 37° C.
NEP, sequence (P08473 whole entry, the tested form may be a part, canonical isoform): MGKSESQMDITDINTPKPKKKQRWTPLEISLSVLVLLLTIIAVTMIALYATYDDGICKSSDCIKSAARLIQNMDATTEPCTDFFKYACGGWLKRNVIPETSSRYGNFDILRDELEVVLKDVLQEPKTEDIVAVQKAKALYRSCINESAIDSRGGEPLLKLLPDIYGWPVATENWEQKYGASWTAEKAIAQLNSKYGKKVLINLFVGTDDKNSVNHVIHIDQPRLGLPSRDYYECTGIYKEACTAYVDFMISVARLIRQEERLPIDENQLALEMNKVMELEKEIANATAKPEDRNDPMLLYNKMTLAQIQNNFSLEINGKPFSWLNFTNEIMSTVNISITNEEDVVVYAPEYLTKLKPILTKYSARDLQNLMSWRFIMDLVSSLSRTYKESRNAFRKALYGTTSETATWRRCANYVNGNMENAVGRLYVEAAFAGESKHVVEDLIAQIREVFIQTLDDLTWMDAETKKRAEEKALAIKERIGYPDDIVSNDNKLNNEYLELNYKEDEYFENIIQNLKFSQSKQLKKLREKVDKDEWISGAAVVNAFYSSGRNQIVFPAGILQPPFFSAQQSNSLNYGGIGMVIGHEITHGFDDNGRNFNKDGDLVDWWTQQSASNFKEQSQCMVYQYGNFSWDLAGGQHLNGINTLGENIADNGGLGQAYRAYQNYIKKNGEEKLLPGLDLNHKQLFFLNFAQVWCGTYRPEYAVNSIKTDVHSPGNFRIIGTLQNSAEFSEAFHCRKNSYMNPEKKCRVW
Protocol: (§1) This experiment compared the in vitro NEP stability of the Arg/Leu peptides of the embodiments to native apelin isoforms and their A2 substituted counterparts. Peptides were incubated with recombinant human NEP (rhNEP, Sino Biological) at 37° C. for up to 72 h, and the extent of degradation was analyzed via LC-MS because of the overlapping elution patterns of peptide fragments. […] (McKinnie, S. M. K., et al. ChemBioChem: 17, 1495-1498 (2016)). […] (Dion, N., et al., Biochem. J.: 311, 623-627 (1995); Bateman Jr., R. C., et al., J. Biol. Chem.: 264, 6151-6157 (1989); McMurray, J. J. et al., J. Med.: 371, 993-1004 (2014)).
(§2) Apelin peptides were dissolved in Milli-Q water (1 mM). Recombinant human neprilysin (rhNEP, Sino Biological) was reconstituted in Tris buffer (100 mM Tris, 100 mM NaCl, 10 μM ZnCl2, pH 7.5). To initiate the assay, rhNEP was diluted in Tris buffer (3.1 nM final concentration), and preincubated at 37° C. for 10 minutes prior to the addition of 5 μL of apelin peptide (1 mM) and 1.5 μL internal standard dansyl-Tyr-Val-Gly-OH (1 mM). Aliquots (10 μL) were removed at 0, 1, 4, 24, and 72 h, quenched with 0.1 M EDTA (10 μL), diluted to 100 μL with Milli-Q water and analyzed by LC-MS. Assays were performed in triplicate (n=3) for each time point. Integrated peak areas of the parent apelin peptide and internal standard derived from LC-MS analyses, were extracted using Mass Hunter software (version B.04.00) and compared in positive extracted ion count modus (+EIC, extracted-ion chromatogram). […] (apelin:dansyl-YVG), to the same ratio at the different assay time points. The decrease in apelin:dansyl-YVG ratio was converted to a percentage of cleaved peptide over time.
(§3) The extent of degradation was analyzed via LC-MS because of the overlapping elution patterns of peptide fragments (NEP).
(§4) Native apelin-17 (2) and apelin peptides 5, 54, 56, 57, 58 and 59 were dissolved in Milli-Q water (1 mM). Recombinant human neprilysin (rhNEP, Sino Biological) was reconstituted in Tris buffer (100 mM Tris, 100 mM NaCl, 10 μM ZnCl2, pH 7.5). To initiate the assay, rhNEP was diluted in Tris buffer (3.1 nM final concentration) and preincubated at 37° C. for 10 min prior to the addition of 5 μL of apelin peptide (1 mM) and 1.5 μL of internal standard dansyl-Tyr-Val-Gly-OH (1 mM). Aliquots (10 μL) were removed at 0, 1, 4, 24, and 72 h, quenched with 0.1 M EDTA (10 μL), diluted to 100 μL with Milli-Q water, and analyzed by LC-MS. Assays were performed in triplicate (n=3) for each time point. Integrated peak areas of the parent apelin peptide and internal standard derived from LC-MS analyses were extracted using Mass Hunter software (version B.04.00) and compared in positive extracted ion count modus (+EIC). The extent of proteolysis was determined by comparing the initial (0 h) ratio of the integrated extracted ions of the parent apelin peptide to the internal dansyl-YVG standard (apelin/dansyl-YVG) to the same ratio at the different assay time points. The decrease in apelin/dansyl-YVG ratio was converted to a percentage of cleaved peptide over time.

KLKB1 [2] = molecular target: T2, KLKB1 (Homo sapiens, UniProt P03952); experiment: Kinetic parameters for KLKB1 cleavage; type: biochemical; set-up: purchased Novoprotein; conditions: for Km / kcat: enzyme KLKB1
T2 sequence (P03952 20-638): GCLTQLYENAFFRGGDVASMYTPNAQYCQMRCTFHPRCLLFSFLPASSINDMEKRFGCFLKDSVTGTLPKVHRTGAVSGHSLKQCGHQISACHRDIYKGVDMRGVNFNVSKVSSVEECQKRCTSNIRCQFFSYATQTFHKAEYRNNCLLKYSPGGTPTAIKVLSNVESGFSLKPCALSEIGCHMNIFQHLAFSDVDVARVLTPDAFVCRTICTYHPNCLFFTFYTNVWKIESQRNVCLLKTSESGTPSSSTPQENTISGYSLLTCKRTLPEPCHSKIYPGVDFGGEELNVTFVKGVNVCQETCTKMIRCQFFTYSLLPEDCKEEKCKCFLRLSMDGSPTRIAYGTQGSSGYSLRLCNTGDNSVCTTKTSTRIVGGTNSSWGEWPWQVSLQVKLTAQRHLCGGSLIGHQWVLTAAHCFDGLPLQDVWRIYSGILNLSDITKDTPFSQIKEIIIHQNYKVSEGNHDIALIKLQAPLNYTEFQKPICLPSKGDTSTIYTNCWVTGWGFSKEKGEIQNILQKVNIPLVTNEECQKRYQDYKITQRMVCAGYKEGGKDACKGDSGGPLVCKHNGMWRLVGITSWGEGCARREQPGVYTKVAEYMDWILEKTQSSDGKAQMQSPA

KLKB1 [3] = molecular target: T2, KLKB1; experiment: In vitro KLKB1 stability (half-life); type: in vitro ADME; set-up: purchased Novoprotein; conditions: rhKLKB1, 37° C.
neprilysin (NEP) = neprilysin (NEP) (Homo sapiens, UniProt P08473); experiment: in vitro; conditions: human, pH 7.5
neprilysin (NEP), sequence (P08473 whole entry): as the sequence (P08473 whole entry, the tested form may be a part, canonical isoform) above
Protocol: as §1, §2, §3, §4

Structure (SMILES): CSCC[C@H](NC(=O)[C@@H]1CCCN1C(=O)CNC(=O)[C@H](CCCCN)NC(=O)[C@H](Cc1cnc[nH]1)NC(=O)[C@H](CO)NC(=O)[C@H](CC(C)C)NC(=O)[C@H](CCCNC(=N)N)NC(=O)[C@@H]1CCCN1C(=O)[C@H](CCCNC(=N)N)NC(=O)[C@H](CCC(N)=O)NC(=O)[C@H](CCCNC(=N)N)NC(=O)[C@H](CCCNC(=N)N)NC(=O)[C@H](Cc1ccccc1)NC(=O)[C@@H](N)CCCCN)C(=O)N1CCC[C@H]1C(=O)N[C@@H](Cc1ccccc1)C(=O)O [Peptide 2, reference compound]
- Ki ([1]; displacement of [125I]-pyr-1-apelin-13 (0.2 nM), CHO membranes, rat apelin receptor-EGFP, means ± SE, read-out: Affinity Ki): 0.05 nM
- t1/2 (rhNEP, h) (NEP; rhNEP 3.1 nM): 0.4 h
- in vitro NEP proteolytic stability (in words) (NEP; rhNEP, up to 72 h, LC-MS): degraded by NEP at rates comparable to those previously reported
- Km (KLKB1 [2]): 97 ± 21 µM
- kcat (KLKB1 [2]): 13.7 ± 1.3 s⁻¹
- t1/2 (rhKLKB1, h) (KLKB1 [3]): 0.4 h

Structure (SMILES): CCCC[C@H](NC(=O)[C@@H]1CCCN1C(=O)CNC(=O)[C@H](CCCCN)NC(=O)[C@H](Cc1c[nH]cn1)NC(=O)[C@H](CO)NC(=O)[C@H](CC(C)C)N(C)C(=O)[C@H](CCCNC(=N)N)NC(=O)[C@@H]1CCCN1C(=O)[C@H](CCCNC(=N)N)NC(=O)[C@H](CCC(N)=O)NC(=O)[C@H](CCCNC(=N)N)NC(=O)[C@H](CCCNC(=N)N)NC(=O)[C@H](Cc1ccccc1)NC(=O)[C@@H](N)CCCCN)C(=O)NC(C)(C)C(=O)N[C@@H](Cc1ccc(Br)cc1)C(=O)O [Peptide 11] (H-KFRRQRPR[NMeL]SHKGP[Nle][Aib][Phe(4-Br)]-OH; C-terminus assumed)
- receptor binding affinity (in words) ([1]; rat apelin receptor): sub-nanomolar receptor affinities
- half-life (neprilysin (NEP)): > 1800 min
- degradation by KLKB1 (in words) (KLKB1 [2]; KLKB1): degraded quickly
- Km (KLKB1 [2]): 245 ± 75 µM
- kcat (KLKB1 [2]): 16.5 ± 2.1 s⁻¹
